No end group written: not given here.
Columns and labels:
existing scars [1] = experiment: Treatment of existing scars during remodeling (scar rescue); type: in vivo, mouse
Text: While wound re-epithelialization is complete relatively quickly (around 2 weeks), wounds continue to heal beneath the surface for months to years in a process known as scar remodeling. (Foster et al., 2021; Gurtner et al., 2008) Remodeling is the longest and least well understood phase of wound repair but is likely critical to ultimate outcomes. We postulated that ADFs could continue to play a role in scarring during the remodeling process; if this were the case, we wondered whether ADF activity could be targeted during wound remodeling, via P1i in existing, actively remodeling scars, to ultimately reduce scarring and drive regeneration (FIG. 6A,C). Thus, we administered P1i to existing scars at POD 30 (early remodeling period), POD 75 (mid-remodeling), and POD 120 (late remodeling), then harvested tissue one month later at POD 60, POD 105, and […] respectively (FIG. 6A, C).

existing scars [2] = experiment: Visium spatial transcriptomic analysis of treated existing scars; type: in vivo, mouse
Description: Wound specimens were rapidly harvested and flash frozen in OCT. Using the Visium Tissue Optimization Slide and Reagent Kit, permeabilization time was optimized at a thickness at 10 μm per section and 37 minutes for mouse tissue. Following cryo-sectioning at −20 degrees onto gene expression slides the expression slide and reagent kit was used to produce sequencing libraries. The libraries were then sequences using NextSeq (Illumina). Following demultiplication the raw FASTQ files and histology images were processed by sample with the Space Ranger software for genome alignment. The raw spaceranger output files for each sample was then read into a Seurat class object in R using Seurat's Load10× function. Data was normalized using the SCT transform with default parameters. To ascertain the integration of our scRNAseq and Visium spatial analysis we employed the FindTransferAnchors( ) function from Seurat, which allowed the alignment of data using the two datasets. This cross-platform linkage is performed serially in an unconstrained and constrained fashion.
To further analyze the spatial gene expression following scar rescue, the Visium platform was applied to scars treated with P1i or PBS at POD 30, 75, and 120 (FIG. 9A). Similar to analysis of acute wound healing, the epidermal, dermal, and hypodermal layers were easily elucidated from the spatial transcriptomic analysis in scars at POD 60 (FIG. 9B). Furthermore, the expected cell types including fibroblasts, immune, epithelial, and adipocytes were identified by spatial expression of representative genes (FIG. 36A).

wound cells = experiment: scRNA-seq and CellChat analysis of POD 14 wounds
human adipocytes = experiment: Human adipocyte-populated collagen I hydrogels with or without mechanical stretch; details: 10% equibiaxial strain, 7 days
TRPC6 = biological target: T1, TRPC6 (Homo sapiens, UniProt Q9Y210); details: cited from earlier work
T1 sequence (Q9Y210 1-931): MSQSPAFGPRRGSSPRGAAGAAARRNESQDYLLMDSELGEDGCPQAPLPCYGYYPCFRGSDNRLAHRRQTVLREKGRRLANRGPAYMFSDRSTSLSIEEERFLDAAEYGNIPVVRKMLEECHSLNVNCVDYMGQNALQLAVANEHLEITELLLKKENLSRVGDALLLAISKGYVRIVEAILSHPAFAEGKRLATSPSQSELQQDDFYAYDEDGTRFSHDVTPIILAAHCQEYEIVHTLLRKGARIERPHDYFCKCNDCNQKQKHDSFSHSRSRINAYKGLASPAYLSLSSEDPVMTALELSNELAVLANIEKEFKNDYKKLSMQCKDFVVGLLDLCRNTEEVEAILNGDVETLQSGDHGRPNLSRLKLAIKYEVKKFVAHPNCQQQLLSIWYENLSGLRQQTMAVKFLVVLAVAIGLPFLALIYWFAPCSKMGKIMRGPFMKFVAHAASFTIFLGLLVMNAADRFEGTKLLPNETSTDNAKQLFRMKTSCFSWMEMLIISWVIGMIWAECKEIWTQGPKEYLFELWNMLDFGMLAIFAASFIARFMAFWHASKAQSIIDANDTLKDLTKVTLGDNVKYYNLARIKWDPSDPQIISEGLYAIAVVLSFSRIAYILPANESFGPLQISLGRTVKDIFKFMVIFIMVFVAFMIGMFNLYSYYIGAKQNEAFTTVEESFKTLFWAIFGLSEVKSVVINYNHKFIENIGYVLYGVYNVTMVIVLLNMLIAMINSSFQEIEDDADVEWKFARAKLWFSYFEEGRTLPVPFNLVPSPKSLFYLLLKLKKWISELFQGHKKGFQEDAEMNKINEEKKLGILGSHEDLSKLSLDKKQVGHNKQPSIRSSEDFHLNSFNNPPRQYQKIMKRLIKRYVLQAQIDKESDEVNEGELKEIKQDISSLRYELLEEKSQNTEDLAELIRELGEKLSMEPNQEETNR

human fibroblasts = experiment: Human fibroblasts in 3D collagen gels with stretching; type: cell-based
Text: To further confirm that human cluster 3 represented a pro-regenerative ADF population we utilized our in vitro collagen gel system. We first, FACS sorted human fibroblasts based on expression of cluster 3 markers including ROBO2, CD29, and SFRP2 and seeded them into 3D collagen gels (FIG. 42B). […] In contrast, stretching with P1 inhibition kept the fibroblasts in a more adipocyte-like phenotype, with high expression of PPARg and low expression of Collagen Type I, similar to fibroblasts in an unstretched state (FIG. 42B).
To determine if P1i may activate […] Wnt pathways to maintain cluster 3 in an adipocyte-like phenotype, we applied Wnt5a recombinant protein to the in vitro collagen gel system (FIG. 42C). […] In summary, P1i treatment may revert fibroblasts towards the mechanically naïve fibroblast pro-regenerative fibroblast population through the activation of canonical Wnt pathways and thereby preventing the transition to pro-scarring phenotypes defined by CJUN and VCAM1 expression.

[3] = treated at POD 30, 75 or 120, harvested one month later

In the case of “GsMTx4 (GCLEFWWKCNPNDDKCCRPKLKCSKLFKLCNFSF; ends and bridges not checked; cysteine pairing not given here; UniProt Q7YT39 47-80, looked up) [P1i]”, the “organization of hair follicles” value (existing scars [1]; POD 105 and 120 vs POD 60) is reported as “less organized than those at POD 60”, the “ADFs in late treated wounds” value (existing scars [1]; late treatment of existing scars) is reported as “significantly reduced” and the “ECM architecture in existing scars” value (existing scars [1]; [3]) is reported as “full recovery of unwounded-like ECM architecture”. For the same substance, the “hair follicles in existing scars” value (existing scars [1]; [3]) was “return of hair follicles”, the “wound regeneration in existing scars” value (existing scars [1]; [3]) was “near-complete wound regeneration” and the spatially identified adipocytes (existing scars [2]; POD 60, 105 and 150, vs PBS) was “greater in number”. The “differential interaction maps (Visium)” value (existing scars [2]; existing scars) was “larger number of interactions between adipocytes and epithelial cells”, the “differentially expressed genes during scar rescue” value (existing scars [2]; existing scars) was “high expression of genes associated with the epidermis” and the “spatial expression of Piezo1, Piezo2, Yap1 and Ptk2” value (existing scars [2]; existing scars, all timepoints) was “observed mostly at the basal aspects of the wounds”. The “relative adipocytes and fibroblasts among sequenced wound cells” value (wound cells; POD 14) was “relatively more adipocytes and fewer fibroblasts”, the “CellChat interactions between cluster 5 fibroblasts and adipocytes” value (wound cells; POD 14, vs control wounds) was “enhanced interactions between cluster 5 fibroblasts and adipocytes” and the “CellChat signaling of adipocyte pathways (Leptin, Chemerin, PD-L1)” value (wound cells; POD 14, vs control wounds) was “enhanced signaling of known adipocyte pathways”. For the same substance, the “CellChat signaling of cluster 5 fibroblasts with other cell types” value (wound cells; POD 14, vs control wounds) was “increase in signaling between cluster 5 fibroblasts and most other cell types”, the “stretch-induced hypertrophy of human adipocytes” value (human adipocytes) was “reversed” and the “block of TRPC6” value (TRPC6) was “blocks”. For the same substance, the “phenotype of human fibroblasts (PPARg, Collagen Type 1)” value (human fibroblasts) was “a more adipocyte like phenotype with high expression of PPARg and low expression of Collagen Type 1”.

— US20250195474A1, “Piezo Inhibition for Wound Healing” (priority 2022, published 2025)
